Assay [1] deals with Butyrylcholinesterase (Equus caballus, UniProt Q9N1N9).
Description: Inhibition of equine BChE incubated with compounf for 5 mins before addition of substrate S-butyrylthiocholine iodide by Ellman's method
For assay [2], the target named is Acetylcholinesterase (Homo sapiens, UniProt P22303).
Description: Inhibition of human AChE incubated with compounf for 5 mins before addition of substrate acetylthiocholine iodide by Ellman's method

pIC50: −log10 of the molar value.

Butyrylcholinesterase, sequence (Q9N1N9 whole entry): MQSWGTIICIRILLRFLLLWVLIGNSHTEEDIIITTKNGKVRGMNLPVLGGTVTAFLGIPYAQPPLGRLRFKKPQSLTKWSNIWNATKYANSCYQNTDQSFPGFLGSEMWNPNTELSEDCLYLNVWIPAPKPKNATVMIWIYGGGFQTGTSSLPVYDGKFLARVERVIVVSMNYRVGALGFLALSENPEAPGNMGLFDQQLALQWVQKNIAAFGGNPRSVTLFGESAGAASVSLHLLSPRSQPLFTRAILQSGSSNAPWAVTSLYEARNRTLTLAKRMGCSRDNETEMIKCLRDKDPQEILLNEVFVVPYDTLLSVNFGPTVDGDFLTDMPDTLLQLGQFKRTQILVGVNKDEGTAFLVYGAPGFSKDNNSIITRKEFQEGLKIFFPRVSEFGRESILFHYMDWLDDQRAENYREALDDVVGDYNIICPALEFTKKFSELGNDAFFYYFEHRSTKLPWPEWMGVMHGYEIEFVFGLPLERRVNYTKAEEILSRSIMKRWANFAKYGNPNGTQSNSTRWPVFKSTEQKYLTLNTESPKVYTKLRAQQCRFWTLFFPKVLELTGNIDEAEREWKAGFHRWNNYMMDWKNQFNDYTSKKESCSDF
Acetylcholinesterase, sequence (P22303 whole entry): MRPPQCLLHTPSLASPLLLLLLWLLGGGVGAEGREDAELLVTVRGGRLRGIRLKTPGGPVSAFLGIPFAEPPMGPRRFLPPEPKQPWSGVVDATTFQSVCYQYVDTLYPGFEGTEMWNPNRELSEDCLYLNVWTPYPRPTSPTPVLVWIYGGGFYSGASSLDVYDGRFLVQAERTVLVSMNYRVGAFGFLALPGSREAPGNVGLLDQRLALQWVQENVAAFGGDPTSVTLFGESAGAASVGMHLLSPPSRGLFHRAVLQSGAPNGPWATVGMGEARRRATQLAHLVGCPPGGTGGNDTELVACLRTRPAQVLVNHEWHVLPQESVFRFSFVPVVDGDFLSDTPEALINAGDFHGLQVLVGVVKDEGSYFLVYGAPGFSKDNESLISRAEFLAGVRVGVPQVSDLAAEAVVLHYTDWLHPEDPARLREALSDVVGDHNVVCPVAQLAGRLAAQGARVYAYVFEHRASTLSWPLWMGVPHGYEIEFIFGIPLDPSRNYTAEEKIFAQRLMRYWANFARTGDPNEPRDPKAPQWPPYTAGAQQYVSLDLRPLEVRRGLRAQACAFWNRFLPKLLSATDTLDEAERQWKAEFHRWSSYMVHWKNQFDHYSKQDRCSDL

Take `CC1CCN(c2nccc(NCCc3ccccc3)n2)CC1`: the values for the pIC50 in assay [1] and in assay [2] were 4.75 and 5.06, respectively.

For the compound `OCCN1CCN(c2nccc(NCc3ccccc3)n2)CC1`, the pIC50 (commonly the negative decadic logarithm of the IC50, by convention in mol/L) in assay [1] is less than 4.00; in assay [2], 4.58.

On to `CC(C)N1CCN(c2nccc(NCc3ccccc3)n2)CC1`, for which the pIC50 is 5.47 in assay [1] and 4.60 in assay [2].

`c1ccc(CNc2ccnc(N3CCCC3)n2)cc1`: the pIC50 in assay [1] is 4.58; in assay [2], 5.06.

Turning to `CC(C)C1CCN(c2nccc(NCc3ccccc3)n2)CC1`, the pIC50 was 5.19 in assay [1] and 4.85 in assay [2].

On to `c1ccc2c(CNc3ccnc(N4CCCC4)n3)cccc2c1`, for which the pIC50 in assay [1] was 5.05; in assay [2], 5.26.

`CC1CCN(c2nccc(NCc3ccccc3)n2)CC1`: the pIC50 in assay [1] was 5.47; in assay [2] it was 4.74.

`CN1CCN(c2nccc(NCc3ccccc3)n2)CC1`: the pIC50 in assay [1] was less than 4.00; in assay [2] it was 4.60.

Regarding `CC(=O)N1CCN(c2nccc(NCCc3ccccc3)n2)CC1`, the pIC50 in assay [1] is less than 4.00; in assay [2], 4.70.

With `FC(F)(F)c1ccc(CN2CCN(c3nccc(NCc4ccccc4)n3)CC2)cc1`, the pIC50 in assay [1] was less than 4.00; in assay [2], 4.54.

With `c1ccc(CNc2ccnc(N3CCNCC3)n2)cc1`, the pIC50 in assay [1] was less than 4.00; in assay [2], 4.81.

For `c1ccc(CNc2ccnc(N3CCN(C4CCCCC4)CC3)n2)cc1`, the pIC50 was 5.12 in assay [1] and 4.64 in assay [2].

Consider `CC(C)(C)OC(=O)N1CCN(c2nccc(NCc3ccccc3)n2)CC1`, for which the results for the pIC50 in assay [1] and in assay [2] were less than 4.00 and 4.73, respectively.

On to `CCCN1CCN(c2nccc(NCc3ccccc3)n2)CC1`, for which the pIC50 is 4.22 in assay [1] and 4.82 in assay [2].

As for `c1ccc2c(CNc3ccnc(N4CCSCC4)n3)cccc2c1`, in assay [2], the pIC50 was 4.89.

As to `Brc1ccc(CN2CCN(c3nccc(NCc4ccccc4)n3)CC2)cc1`, the values for the pIC50 in assay [1] and in assay [2] were 4.84 and 4.59, respectively.

As for `CC(=O)N1CCN(c2nccc(NCc3ccccc3)n2)CC1`, the figures for the pIC50 in assay [1] and in assay [2] were less than 4.00 and 4.78, respectively.

Take `c1ccc2c(NCCCCCCCNc3c4c(nc5ccccc35)CCCC4)c3c(nc2c1)CCCC3`: the pIC50 in assay [1] was 8.00.

In the case of `Clc1ccc(CN2CCN(c3nccc(NCc4ccccc4)n3)CC2)cc1`, the pIC50 was 4.97 in assay [1] and 4.69 in assay [2].

Turning to `c1ccc(CNc2ccnc(N3CCSCC3)n2)cc1`, the pIC50 was 5.21 in assay [1] and 4.63 in assay [2].

On to `CN1CCN(c2nccc(NCc3cccc4ccccc34)n2)CC1`, for which the pIC50 in assay [1] was 5.59; in assay [2] it was 4.76.

`c1ccc(CNc2ccnc(N3CCOCC3)n2)cc1` showed a pIC50 in assay [2] of 4.85.

On to `c1ccc(CCNc2ccnc(N3CCOCC3)n2)cc1`, for which the results for the pIC50 in assay [1] and in assay [2] were less than 4.00 and 4.71, respectively.

For the compound `c1ccc2c(CNc3ccnc(N4CCOCC4)n3)cccc2c1`, the pIC50 in assay [1] was 4.55; in assay [2], 4.83.

Take `[O-][S+]1CCN(c2nccc(NCc3ccccc3)n2)CC1`: the pIC50 in assay [1] was less than 4.00; in assay [2] it was 4.90.

With `O=S1(=O)CCN(c2nccc(NCc3ccccc3)n2)CC1`, the figures for the pIC50 in assay [1] and in assay [2] were less than 4.00 and 4.62, respectively.

With `c1ccc(CCNc2ccnc(N3CCSCC3)n2)cc1`, the values for the pIC50 in assay [1] and in assay [2] were less than 4.00 and 4.58, respectively.

Take `CC1CCN(c2nccc(NCc3cccc4ccccc34)n2)CC1`: the pIC50 was 5.66 in assay [1] and 4.59 in assay [2].

Regarding `Fc1ccc(CN2CCN(c3nccc(NCc4ccccc4)n3)CC2)cc1`, the figures for the pIC50 in assay [1] and in assay [2] were 5.14 and 4.67, respectively.

In assay [2], `c1ccc(CCNc2ccnc(N3CCCC3)n2)cc1` showed a pIC50 of 5.01.

For `CN1CCN(c2nccc(NCCc3ccccc3)n2)CC1`, the pIC50 was less than 4.00 in assay [1] and 4.69 in assay [2].

`COCCN1CCN(c2nccc(NCc3ccccc3)n2)CC1`: the pIC50 is less than 4.00 in assay [1] and 4.57 in assay [2].

Take `c1ccc(CNc2ccnc(NC3CCN(Cc4ccccc4)CC3)n2)cc1`: the pIC50 in assay [1] is 5.09; in assay [2], 4.91.

Source of the values: ChEMBL document CHEMBL1764969, “Design, synthesis and structure-activity relationship (SAR) studies of 2,4-disubstituted pyrimidine derivatives: dual activity as cholinesterase and Aβ-aggregation inhibitors” (Bioorg Med Chem, 2011).
